Assay results: patent US9233951B2, “Heterocyclic compounds as pesticides” (Bayer Intellectual Property GmbH, priority 2010, dated 2016)
Like-named read-outs stand apart in the source and are kept apart here.

Experiments:
[1] = physchem; type: physicochemical
Experimental: 1 Method Description for Determination of the logP values and Mass Detection
Eluents for determination in the acidic range (pH 3.4): • Eluent A: acetonitrile+1 ml formic acid/l.
The λmax values were determined in the maxima of the chromatographic signals using the UV spectra from 200 nm to 400 nm. The mass was detected (M^+, m/z) by means of an Agilent MSD mass spectrometer.

[2] = test system: green peach aphid (Myzus persicae); assay: Myzus persicae test (spray treatment); type: in vivo; details: foliar, 144 h, read-out: efficacy in %
Experimental: Myzus persicae Test (Spray Treatment)
• Solvent: 78 parts by weight of acetone • 1.5 parts by weight of dimethylformamide • Emulsifier: 0.5 part by weight of alkylaryl polyglycol ether
To prepare an appropriate active ingredient preparation, 1 part by weight of active ingredient is mixed with the stated amounts of solvent and emulsifier, and the concentrate is diluted with emulsifier-containing water to the desired concentration. Discs of Chinese cabbage (Brassica pekinensis) infested by all stages of the green peach aphid (Myzus persicae) are sprayed with an active ingredient preparation of the desired concentration.
After 6 days, the efficacy in % is determined. 100% means that all of the aphids have been killed; 0% means that none of the aphids have been killed.

[3] = test system: armyworm (Spodoptera frugiperda); assay: Spodoptera frugiperda test (spray treatment); type: in vivo; details: application rate 500 g/ha; maize leaf discs sprayed; after 7 days; 100% = all caterpillars killed
Experimental: Spodoptera frugiperda Test (Spray Treatment)
• Solvent: 78.0 parts by weight of acetone • 1.5 parts by weight of dimethylformamide • Emulsifier: 0.5 part by weight of alkylaryl polyglycol ether
To prepare an appropriate active ingredient preparation, 1 part by weight of active ingredient is mixed with the stated amounts of solvent and emulsifier, and the concentrate is diluted with emulsifier-containing water to the desired concentration. Discs of maize leaves (Zea mays) are sprayed with an active ingredient preparation of the desired concentration and, after drying, populated with the armyworm (Spodoptera frugiperda).
After 7 days, the efficacy in % is determined. 100% means that all caterpillars have been killed; 0% means that none of the caterpillars have been killed.

[4] = reverse-phase HPLC column (C 18), pH 3.4, HPLC, reverse-phase C 18, acidic range pH 3.4, 55° C., table of compounds, read-out: logP (HCO2H)
[5] = reverse-phase HPLC column (C 18), pH 3.4, HPLC-MS value printed in the preparation example text, acidic range pH 3.4, read-out: logP (HCOOH)
[6] = application rate 500 g/ha, Chinese cabbage leaf discs sprayed, after 6 days, 100% = all aphids killed

Compound | chromatographic logP [1, 4] | chromatographic logP [1, 5] | pest or weed control at 500 g/ha [2, 6] [%] | pest or weed control at 500 g/ha ([2]; in Brassica rapa) [%] | chromatographic logP ([1]; pH 3.4, logP (HCO2H)) | efficacy in % [3] [%]
CN(C)C(=O)c1cc(-c2cccnc2)no1 [Compound 2, N,N-Dimethyl-3-(pyridin-3-yl)-1,2-oxazole-5-carboxamide] | 0.78 | 0.78 | 100 | – | – | –
CCN(CC)C(=O)c1ccc(-c2cccnc2)o1 [Compound 6] | 1.23 | – | 100 | – | – | –
CNC(=O)c1ccc(-c2cccnc2)o1 [Compound 31, N-Methyl-5-(pyridin-3-yl)furan-2-carboxamide] | 0.42 | 0.42 | – | 100 | – | –
O=C(NCc1ncccn1)C1CN=C(c2cccnc2)S1 (centres unmarked) [Compound 43] | – | – | 100 | – | 0.32 | –
CC(F)(F)CNC(=O)c1cn(-c2cccnc2)nn1 [Compound 37, N-(2,2-Difluoropropyl)-1-(pyridin-3-yl)-1H-1,2,3-triazole-4-carboxamide] | 1.21 | 1.25 | – | 100 | – | 100
CCN(C)C(=O)c1ccc(-c2cccnc2)o1 [Compound 11] | 1 | – | 100 | – | – | –

Continued, in another order:

chromatographic logP [1, 4] | Compound | chromatographic logP [1, 5] | pest or weed control at 500 g/ha [2, 6] [%] | pest or weed control at 500 g/ha ([2]; in Brassica rapa) [%] | chromatographic logP ([1]; pH 3.4, logP (HCO2H)) | efficacy in % [3] [%]
1.39 | O=C(NCC1CC1)c1ccc(-c2cccnc2)o1 [Compound 30] | – | 100 | – | – | –
1.28 | C=C(Cl)CNC(=O)c1ccc(-c2cccnc2)o1 [Compound 19] | – | 100 | – | – | –
